Experimental data reported in ChEMBL document CHEMBL3612057, “Discovery of indolizines containing triazine moiety as new leads for the development of antitumoral agents targeting mitotic events” (2015).
Calls of active or inactive are those of the source. No cut-off for these calls is given here.

Key:
CCRF-CEM = experiment: Cytotoxicity against human CCRF-CEM cells assessed as growth inhibition at 10 uM after 24 hrs by SRB assay; type: functional
HL-60(TB) = experiment: Cytotoxicity against human HL-60(TB) cells assessed as growth inhibition at 10 uM after 24 hrs by SRB assay; type: functional
K562 = experiment: Cytotoxicity against human K562 cells assessed as growth inhibition at 10 uM after 24 hrs by SRB assay; type: functional
RPMI-8226 = experiment: Cytotoxicity against human RPMI8226 cells assessed as growth inhibition at 10 uM after 24 hrs by SRB assay; type: functional
SR = experiment: Cytotoxicity against human SR cells assessed as growth inhibition at 10 uM after 24 hrs by SRB assay; type: functional
A549 = experiment: Cytotoxicity against human A549 cells assessed as growth inhibition at 10 uM after 24 hrs by SRB assay; type: functional
HOP-62 = experiment: Cytotoxicity against human HOP62 cells assessed as growth inhibition at 10 uM after 24 hrs by SRB assay; type: functional
HOP-92 = experiment: Cytotoxicity against human HOP92 cells assessed as growth inhibition at 10 uM after 24 hrs by SRB assay; type: functional
NCI-H226 = experiment: Cytotoxicity against human NCI-H226 cells assessed as growth inhibition at 10 uM after 24 hrs by SRB assay; type: functional
NCI-H460 = experiment: Cytotoxicity against human NCI-H460 cells assessed as growth inhibition at 10 uM after 24 hrs by SRB assay; type: functional
NCI-H522 = experiment: Cytotoxicity against human NCI-H522 cells assessed as growth inhibition at 10 uM after 24 hrs by SRB assay; type: functional
HCT-116 = experiment: Cytotoxicity against human HCT116 cells assessed as growth inhibition at 10 uM after 24 hrs by SRB assay; type: functional
SF-295 = experiment: Cytotoxicity against human SF295 cells assessed as growth inhibition at 10 uM after 24 hrs by SRB assay; type: functional; settings: SF-295, 24 h, read-out: GI
SF-539 = experiment: Cytotoxicity against human SF539 cells assessed as growth inhibition at 10 uM after 24 hrs by SRB assay; type: functional
SNB-75 = experiment: Cytotoxicity against human SNB75 cells assessed as growth inhibition at 10 uM after 24 hrs by SRB assay; type: functional; settings: SNB-75, 24 h, read-out: GI
U-251 = experiment: Cytotoxicity against human U251 cells assessed as growth inhibition at 10 uM after 24 hrs by SRB assay; type: functional
Malme-3M = experiment: Cytotoxicity against human MALME-3M cells assessed as growth inhibition at 10 uM after 24 hrs by SRB assay; type: functional
MDA-MB-435 = experiment: Cytotoxicity against human MDA-MB-435 cells assessed as growth inhibition at 10 uM after 24 hrs by SRB assay; type: functional
SK-MEL-28 = experiment: Cytotoxicity against human SK-MEL-28 cells assessed as growth inhibition at 10 uM after 24 hrs by SRB assay; type: functional
SK-MEL-5 = experiment: Cytotoxicity against human SK-MEL-5 cells assessed as growth inhibition at 10 uM after 24 hrs by SRB assay; type: functional
UACC-257 = experiment: Cytotoxicity against human UACC257 cells assessed as growth inhibition at 10 uM after 24 hrs by SRB assay; type: functional
UACC-62 = experiment: Cytotoxicity against human UACC62 cells assessed as growth inhibition at 10 uM after 24 hrs by SRB assay; type: functional
OVCAR-3 = experiment: Cytotoxicity against human OVCAR3 cells assessed as growth inhibition at 10 uM after 24 hrs by SRB assay; type: functional
OVCAR-4 = experiment: Cytotoxicity against human OVCAR4 cells assessed as growth inhibition at 10 uM after 24 hrs by SRB assay; type: functional
OVCAR-8 = experiment: Cytotoxicity against human OVCAR8 cells assessed as growth inhibition at 10 uM after 24 hrs by SRB assay; type: functional; settings: OVCAR-8, 24 h, read-out: GI
NCI/ADR-RES = experiment: Cytotoxicity against human NCI/ADR-RES cells assessed as growth inhibition at 10 uM after 24 hrs by SRB assay; type: functional; settings: read-out: GI
SK-OV-3 = experiment: Cytotoxicity against human SKOV3 cells assessed as growth inhibition at 10 uM after 24 hrs by SRB assay; type: functional; settings: SK-OV-3, 24 h, read-out: GI
786-0 = experiment: Cytotoxicity against human 786-0 cells assessed as growth inhibition at 10 uM after 24 hrs by SRB assay; type: functional; settings: 786-0, 24 h, read-out: GI
ACHN = experiment: Cytotoxicity against human ACHN cells assessed as growth inhibition at 10 uM after 24 hrs by SRB assay; type: functional; settings: read-out: GI
CAKI-1 = experiment: Cytotoxicity against human CAKI-1 cells assessed as growth inhibition at 10 uM after 24 hrs by SRB assay; type: functional
RXF 393 = experiment: Cytotoxicity against human RXF393 cells assessed as growth inhibition at 10 uM after 24 hrs by SRB assay; type: functional; settings: RXF 393, 24 h, read-out: GI
TK-10 = experiment: Cytotoxicity against human TK10 cells assessed as growth inhibition at 10 uM after 24 hrs by SRB assay; type: functional
PC-3 = experiment: Cytotoxicity against human PC3 cells assessed as growth inhibition at 10 uM after 24 hrs by SRB assay; type: functional
MCF7 = experiment: Cytotoxicity against human MCF7 cells assessed as growth inhibition at 10 uM after 24 hrs by SRB assay; type: functional; settings: MCF7, 24 h, read-out: GI
MDA-MB-231 = experiment: Cytotoxicity against human MDA-MB-231 cells assessed as growth inhibition at 10 uM after 24 hrs by SRB assay; type: functional; settings: MDA-MB-231, 24 h, read-out: GI
[1] = Cytotoxicity against human Hs578T cells assessed as growth inhibition at 10 uM after 24 hrs by SRB assay; type: functional; settings: Hs-578T, read-out: GI
T47D = experiment: Cytotoxicity against human T47D cells assessed as growth inhibition at 10 uM after 24 hrs by SRB assay; type: functional; settings: read-out: GI
Ovis aries = species: Ovis aries; experiment: Inhibition of sheep tubulin polymerization at 100 uM by fluorescence assay

SMILES	growth inhibition (GI) (CCRF-CEM)	growth inhibition (GI) (HL-60(TB))	growth inhibition (GI) (K562)	growth inhibition (GI) (RPMI-8226)	growth inhibition (GI) (HOP-92)	growth inhibition (GI) (NCI-H460)	inhibition of growth at 10 µM (SF-295) [%]	inhibition of growth at 10 µM (SNB-75) [%]	growth inhibition (GI) (MDA-MB-435)	growth inhibition (GI) (SK-MEL-5)	growth inhibition (GI) (UACC-257)	inhibition of growth at 10 µM (OVCAR-8) [%]	inhibition of growth at 10 µM (NCI/ADR-RES) [%]	inhibition of growth at 10 µM (SK-OV-3) [%]	inhibition of growth at 10 µM (786-0) [%]	inhibition of growth at 10 µM (ACHN) [%]	inhibition of growth at 10 µM (RXF 393) [%]	inhibition of growth at 10 µM (MCF7) [%]	inhibition of growth at 10 µM (MDA-MB-231) [%]	inhibition of growth at 10 µM [1] [%]	further results
COc1nc(OC)nc(-c2cc(C(=O)c3ccc(Br)cc3)n3c(C)cccc23)n1	inactive	inactive	inactive	inactive	inactive	inactive	22	75	inactive	inactive	inactive	29	14	20	14	30	36	24	27	22	growth inhibition (GI) (SR): inactive; growth inhibition (GI) (A549): inactive; growth inhibition (GI) (HOP-62): inactive; growth inhibition (GI) (NCI-H226): inactive; growth inhibition (GI) (NCI-H522): inactive; growth inhibition (GI) (HCT-116): inactive; growth inhibition (GI) (SF-539): inactive; growth inhibition (GI) (U-251): inactive; inhibition of growth at 10 µM (Malme-3M; read-out: GI): 18%; inhibition of growth at 10 µM (SK-MEL-28; SK-MEL-28, 24 h, read-out: GI): 14%; growth inhibition (GI) (UACC-62): inactive; inhibition of growth at 10 µM (OVCAR-3; OVCAR-3, 24 h, read-out: GI): 15%; inhibition of growth at 10 µM (OVCAR-4; OVCAR-4, 24 h, read-out: GI): 18%; growth inhibition (GI) (CAKI-1): inactive; growth inhibition (GI) (TK-10): inactive; growth inhibition (GI) (PC-3): inactive; inhibition of growth at 10 µM (T47D): 19%; inhibition (Ovis aries): inactive
COc1ccc(C(=O)c2cc(-c3nc(OC)nc(OC)n3)c3ccccn23)cc1	inactive	inactive	inactive	inactive	inactive	inactive	47	-17	inactive	inactive	inactive	16	19	54	27	54	59	13	50	25	inhibition of growth at 10 µM (SR; read-out: GI): 19%; inhibition of growth at 10 µM (A549; A549, 24 h, read-out: GI): 21%; inhibition of growth at 10 µM (HOP-62; HOP-62, 24 h, read-out: GI): 97%; inhibition of growth at 10 µM (NCI-H226; NCI-H226, 24 h, read-out: GI): 12%; inhibition of growth at 10 µM (NCI-H522; NCI-H522, 24 h, read-out: GI): 60%; inhibition of growth at 10 µM (HCT-116; HCT-116, 24 h, read-out: GI): 36%; inhibition of growth at 10 µM (SF-539; SF-539, 24 h, read-out: GI): 32%; inhibition of growth at 10 µM (U-251; U-251, 24 h, read-out: GI): 56%; growth inhibition (GI) (Malme-3M): inactive; growth inhibition (GI) (SK-MEL-28): inactive; inhibition of growth at 10 µM (UACC-62; UACC-62, 24 h, read-out: GI): 11%; growth inhibition (GI) (OVCAR-3): inactive; growth inhibition (GI) (OVCAR-4): inactive; inhibition of growth at 10 µM (CAKI-1; CAKI-1, 24 h, read-out: GI): 26%; inhibition of growth at 10 µM (TK-10; TK-10, 24 h, read-out: GI): 18%; inhibition of growth at 10 µM (PC-3; PC-3, 24 h, read-out: GI): 18%; inhibition of growth at 10 µM (T47D): 17%; inhibition (Ovis aries): inactive
